Reference: publication PMC8126888 (RSC Medicinal Chemistry, 2020)
pIC50: −log10 of the molar value. Where two headings read alike, the source gives them in different places.

Columns and labels:
[1] = test system: Leishmania infantum (MHOM/MA/67/ITMAP-263) intracellular amastigotes in THP-1; assay: microbe, parasite or virus in culture
[2] = test system: primary peritoneal mouse macrophages (PMM); assay: cells; settings: Macrophage
in vitro [3] = settings: human, microsomes
[4] = test system: Leishmania infantum MHOM/MA(BE)/67/ITMAP263 intracellular amastigotes; assay: microbe, parasite or virus in culture; settings: Macrophage, in Mus musculus
in vitro [5] = settings: human; for IC50 at 120 h: PMA-differentiated THP-1 cells; for CC50 at 120 h: THP-1 cells differentiated with PMA
physchem = settings: HPLC, Ascentis Express RP Amide column
[6] = test system: Leishmania infantum MHOM/MA(BE)/67/ITMAP263 intracellular amastigotes; settings: for potency against L. inf. in words: intracellular amastigotes in PMM
in vitro [7] = settings: mouse, microsomes; for microsomal CLint at 0.5 h, 0.5 µM: intrinsic in vitro clearance, liver microsomes; for microsomal CLint at 0.5 μM: mouse liver microsomes
in vitro [8] = settings: human
[9] = test system: Trypanosoma cruzi, Tulahuen CL2, beta-galactosidase strain; assay: microbe, parasite or virus in culture; settings: for pIC50: MRC5, read-out: T. cruzi Tulahuen C4 (LacZ) IC50; for IC50: MRC5, read-out: T. cruzi Tulahuen C4 (LacZ) IC50 (uM)
[10] = test system: primary peritoneal mouse macrophages (PMM); settings: PMM IC50 / L. infantum IC50
in vitro [11] = settings: Swiss, mouse
in vitro [12] = settings: PAMPA
in vitro [13] = settings: human, HFF-1 cells
in vitro [14] = settings: human, HepG2 cells
[15] = THP-1, 120 h, read-out: Intracellular activity pIC50 L. inf. in THP-1 (converted)
[16] = read-out: PMM pIC50 (converted)
[17] = pH 7.4, Microsome Clint Human, intrinsic in vitro clearance, liver microsomes
[18] = read-out: L. inf. pIC50, intracellular amastigotes in PMM (converted), geometric mean of a minimum of two experiments ± standard error
[19] = pH 7.4, elog D, HPLC measured log D, pH 7.4
[20] = pH 7.4, Microsome Clint,u Human, Table 2, intrinsic in vitro clearance, liver microsomes
[21] = pH 7.4, Microsome Clint,u Mouse, Table 2
[22] = pH 7.4, HLM CLint, human liver microsomes
[23] = read-out: L. Inf. pIC50, from L. infantum intracellular amastigote IC50 (converted)
[24] = read-out: L. infantum MHOM/MA(BE)/67/ITMAP263 intracellular amastigotes IC50
[25] = pH 7.4, HLM CLint (uL/min/mg), human liver microsomes
[26] = read-out: L. infantum MHOM/MA(BE)/67/ITMAP263 intracellular amastigotes IC50 (uM), intracellular amastigotes
[27] = THP-1, read-out: L. infantum MHOM/MA/67/ITMAP263 intracellular amastigotes THP-1 cells IC50 (uM)
[28] = reference drug in the intracellular Leishmania amastigote assay

Row | Structure (SMILES) | IC50 [1, 15] [µM] | IC50 [4, 18] [µM] | CC50 at 3 days (in vitro [8]) [µM] | IC50 [4, 23] [µM] | IC50 ([2]; read-out: PMM IC50 (uM)) [µM] | microsomal CLint at 0.5 μM (in vitro [3]; [25]) [µL/min/mg] | Papp (in vitro [12]) [×10⁻⁶ cm/s] | IC50 [4, 26] [µM] | IC50 [9] [µM] | IC50 [1, 27] [µM] | CC50 at 120 h (in vitro [5]) [µM] | CC50 (in vitro [13]) [µM] | CC50 (in vitro [14]) [µM] | other results
1 | C[C@@H]1[C@H](O)[C@@H](C)/C=C/C=C/C=C/C=C/C=C/C=C/C=C/[C@H](O[C@@H]2O[C@H](C)[C@@H](O)[C@H](N)[C@@H]2O)C[C@@H]2O[C@](O)(C[C@@H](O)C[C@@H](O)[C@H](O)CC[C@@H](O)C[C@@H](O)CC(=O)O[C@H]1C)C[C@H](O)[C@H]2C(=O)O [Amphotericin B, reference compound] | 1.95 |  |  |  |  |  |  |  |  |  |  |  |  | 
2 | COc1ccc(S(C)(=O)=O)cc1S(=O)(=O)N(Cc1ccc(F)cc1)Cc1ccc(F)cc1 [Compound 26] | 5.89 | 1.29 |  |  |  |  |  |  |  |  |  |  |  | IC50 [2, 16]: > 64.6 µM; microsomal CLint at 0.5 μM (in vitro [3]; [17]): 296 µL/min/mg; IC50 at 120 h (in vitro [5]): > 64.6 µM; chromatographic logD (physchem; [19]): 3.9
3 | COCCOCN1CNc2cc(OC)c(S(=O)(=O)N(Cc3ccccc3)Cc3ccccc3)cc2S1(=O)=O [Compound 29] | 14.8 | 0.661 |  |  |  |  |  |  |  |  |  |  |  | IC50 [2, 16]: > 64.6 µM; microsomal CLint at 0.5 h, 0.5 µM (in vitro [3]; [17]): 518 µL/min/mg; potency against L. inf. in words [6]: sub-micromolar potency; microsomal CLint at 0.5 h, 0.5 µM (in vitro [7]; pH 7.4, Microsome Clint Mouse): 1370 µL/min/mg; IC50 at 120 h (in vitro [5]): 39.8 µM; chromatographic logD (physchem; [19]): 4
4 | COc1ccc(C(=O)N2CCOCC2)cc1S(=O)(=O)N(Cc1ccccc1)CC(C)(C)C [Compound 45] | 27.5 | 1 |  |  |  |  |  |  |  |  |  |  |  | IC50 [2, 16]: > 64.6 µM; microsomal CLint at 0.5 h, 0.5 µM (in vitro [3]; [20]): 1600 µL/min/mg; microsomal CLint at 0.5 h, 0.5 µM (in vitro [7]; [21]): 2580 µL/min/mg; IC50 at 120 h (in vitro [5]): > 64.6 µM; chromatographic logD (physchem; [19]): 3.8
5 | COc1ccc(C(=O)N2CCOCC2)cc1S(=O)(=O)N(Cc1ccc(C(F)(F)F)nc1)CC(C)(C)C [Compound 48] | > 64.6 | 45.7 |  |  |  |  |  |  |  |  |  |  |  | IC50 [2, 16]: > 64.6 µM; microsomal CLint at 0.5 h, 0.5 µM (in vitro [3]; [20]): 143 µL/min/mg; potency against L. inf. in words [6]: inactive; microsomal CLint at 0.5 h, 0.5 µM (in vitro [7]; [21]): 379 µL/min/mg; IC50 at 120 h (in vitro [5]): > 64.6 µM
6 | COc1ccc(C#N)cc1S(=O)(=O)N(Cc1ccccc1)Cc1cnc(C(F)(F)F)nc1 [Compound 49] | 61.7 | 3.89 |  |  |  |  |  |  |  |  |  |  |  | IC50 [2, 16]: > 64.6 µM; microsomal CLint at 0.5 μM (in vitro [3]; [20]): 100 µL/min/mg; IC50 at 120 h (in vitro [5]): > 64.6 µM; chromatographic logD (physchem; [19]): 3.8
7 | CC(=O)Nc1ccc(S(=O)(=O)N(CCN(C)C)Cc2ccccc2)cc1 [DNDI0003366091] |  |  | > 64 | > 64 |  |  |  |  |  |  |  |  |  | microsomal CLint at 0.5 μM (in vitro [3]; [22]): 95 µL/min/mg; microsomal CLint at 0.5 μM (in vitro [7]; pH 7.4, MLM CLint): 42 µL/min/mg; pIC50 [4, 24]: < 4.19; pIC50 [9]: < 4.19; chromatographic logD (physchem; pH 7.4, eLogD): 3; SI (vs PMM) [10]: 1; pIC50 (in vitro [11]): < 4.19
8 | COc1ccc(OC)c(S(=O)(=O)N(Cc2ccccc2)C2CCNCC2)c1 [DNDI0003366094] |  |  | 42.2 | 27.5 |  |  |  |  |  |  |  |  |  | microsomal CLint at 0.5 μM (in vitro [3]; [22]): 100 µL/min/mg; microsomal CLint at 0.5 μM (in vitro [7]; pH 7.4, MLM CLint): 23 µL/min/mg; pIC50 [4, 24]: 4.56; pIC50 [9]: 4.54; chromatographic logD (physchem; pH 7.4, eLogD): 3.1; SI (vs PMM) [10]: 2; pIC50 (in vitro [11]): 4.34
9 | CCN(Cc1ccccn1)S(=O)(=O)c1cc(OC)ccc1OC [DNDI0003366095] |  |  | > 64 | 43.7 |  |  |  |  |  |  |  |  |  | microsomal CLint at 0.5 μM (in vitro [3]; [22]): 118 µL/min/mg; microsomal CLint at 0.5 μM (in vitro [7]; pH 7.4, MLM CLint): 2190 µL/min/mg; pIC50 [4, 24]: 4.36; pIC50 [9]: < 4.19; chromatographic logD (physchem; pH 7.4, eLogD): 2.7; SI (vs PMM) [10]: 1; pIC50 (in vitro [11]): < 4.19
10 | COCCN(Cc1ccccc1)S(=O)(=O)c1ccc(NC(C)=O)cc1 [DNDI0003366100] |  |  | > 64 | > 64 |  |  |  |  |  |  |  |  |  | microsomal CLint at 0.5 μM (in vitro [3]; [22]): 424 µL/min/mg; microsomal CLint at 0.5 μM (in vitro [7]; pH 7.4, MLM CLint): 29 µL/min/mg; pIC50 [4, 24]: < 4.19; pIC50 [9]: < 4.19; chromatographic logD (physchem; pH 7.4, eLogD): 3.2; SI (vs PMM) [10]: 1; pIC50 (in vitro [11]): < 4.19
11 | COCCN(C(C)=O)c1ccc(S(=O)(=O)N(CCOC)Cc2ccccc2)cc1 [DNDI0003366101] |  |  | > 64 | > 64 |  |  |  |  |  |  |  |  |  | microsomal CLint at 0.5 μM (in vitro [3]; [22]): 73 µL/min/mg; microsomal CLint at 0.5 μM (in vitro [7]; pH 7.4, MLM CLint): 227 µL/min/mg; pIC50 [4, 24]: < 4.19; pIC50 [9]: < 4.19; chromatographic logD (physchem; pH 7.4, eLogD): 3.1; SI (vs PMM) [10]: 1; pIC50 (in vitro [11]): < 4.19
12 | CCN(Cc1ccc(F)cc1)S(=O)(=O)c1cc(C(=O)N2CCOCC2)ccc1OC [DNDI0003392124] |  |  | > 64 | 20.9 | > 64 | 142 | 15.5 | 20.7 | 36 | > 64 | > 64 | > 64 | > 64 | microsomal CLint at 0.5 μM (in vitro [7]; pH 7.4, MLM CLint (uL/min/mg)): 116 µL/min/mg; chromatographic logD (physchem; pH 7.4, eLogD, experimental): 2.7
13 | Nc1cc(Cl)c(S(N)(=O)=O)cc1S(=O)(=O)N(Cc1ccccc1)Cc1ccccc1 [DNDI0003392145] |  |  | 43.4 | 35.5 | 50.8 | 253 | 3.37 | 35.3 | 17.7 | 31.2 | 60.6 | > 64 | > 64 | chromatographic logD (physchem; pH 7.4, eLogD, experimental): 3.4
14 | COc1ccc(C(=O)N2CCOCC2)cc1S(=O)(=O)N(Cc1ccccc1)CC(C)(C)C [DNDI0003407876] |  |  | > 64 | 1 | > 64 | 1140 | 21.7 | 1 | 16.7 | 27.5 | > 64 | > 64 | > 64 | microsomal CLint at 0.5 μM (in vitro [7]; pH 7.4, MLM CLint (uL/min/mg)): 858 µL/min/mg
15 | COc1ccc(C(=O)N2CCOCC2)cc1S(=O)(=O)N(Cc1ccc(C(F)(F)F)nc1)CC(C)(C)C [DNDI0003407906] |  |  | > 64 | 45.7 | > 64 | 127 | 15.7 | 45.2 | 35.6 | > 64 | > 64 | > 64 | > 64 | microsomal CLint at 0.5 μM (in vitro [7]; pH 7.4, MLM CLint (uL/min/mg)): 262 µL/min/mg
16 | COCCOCN1CNc2cc(OC)c(S(=O)(=O)N(Cc3ccccc3)Cc3ccccc3)cc2S1(=O)=O [DNDI0003425511] |  |  | > 64 | 0.661 | > 64 | 460 | 0.92 | 0.65 | 61.7 | 14.8 | 40.2 | > 64 | 52 | microsomal CLint at 0.5 μM (in vitro [7]; pH 7.4, MLM CLint (uL/min/mg)): 976 µL/min/mg
17 | O=S1(=O)NCNc2cc(Cl)c(S(=O)(=O)N(Cc3ccccc3)Cc3ccccc3)cc21 [DNDI0003425512] |  |  | 25 | 1.29 | 32 | 63 | 0.04 | 1.28 | 9.14 | 24.9 | 52.4 | 29.5 | > 64 | chromatographic logD (physchem; pH 7.4, eLogD, experimental): 4.2
18 | COCCOCN(Cc1ccccc1)S(=O)(=O)c1cc(OC)ccc1OC [DNDI0003425514] |  |  | > 64 | 6.17 | > 64 |  | 12.8 | 6.11 | > 64 | > 64 | > 64 | > 64 | > 64 | chromatographic logD (physchem; pH 7.4, eLogD, experimental): 3.4
19 | COc1ccc(C#N)cc1S(=O)(=O)N(Cc1ccccc1)Cc1cnc(C(F)(F)F)nc1 [DNDI0003425527] |  |  | > 64 | 3.89 | > 64 | 80 | 29.4 | 3.9 | 28.4 | 61.1 | > 64 | > 64 | > 64 | microsomal CLint at 0.5 μM (in vitro [7]; pH 7.4, MLM CLint (uL/min/mg)): 100 µL/min/mg
20 | CCCCCCCCCCCCCCCCOP(=O)([O-])OCC[N+](C)(C)C [Miltefosine, reference compound] | 1.95 | 8.71 |  |  |  |  |  |  |  |  |  |  |  | pIC50 [6, 28]: ~5.30; pIC50 [4, 28]: 5.00 to 5.30
